Here are results for 53 molecules from patent US20240082463A1, “COATED MEDICAL PRODUCT” (HEMOTEQ AG, priority 2020, published 2024).

Like-named read-outs stand apart in the source and are kept apart here.

The conditions of data set [1]: cited from earlier work.
The nature of data set [2]: Crystal suspensions of microcrystalline paclitaxel in different solvent mixtures. It is filed as physicochemical. As to conditions: with trioctanoylglycerol. Further details: key: +++: good; +/−: average; −−−: poor. How it is done: To prepare the solutions, 770 mg of trioctanoylglycerol was dissolved in the polar solvent. Then the nonpolar solvent was added. It was then homogenized and filtered.
To test whether crystal suspension could be prepared, 10 mL of each of the solutions was carefully added to 200 mg of paclitaxelin the form of microcrystals at room temperature. After combining, it was tested whether stable crystal suspensions were obtained.

The nature of data set [3]: Preparation and stability of crystal suspensions of microcrystalline paclitaxel with solutions of different tri-O-acylglycerols. As to conditions: for microcrystals intact in SEM images: SEM 200× and 1000×; for microcrystals of paclitaxel dissolve directly in the solution: directly after combining, room temperature.
Excerpt: In the first step, solutions of tri-O-acylglycerols were first prepared in a solvent mixture. Subsequently, the solutions were combined with microcrystals of paclitaxel to investigate which tri-O-acylglycerols could be used to obtain stable crystal suspensions. […] For the preparation of the solutions, an ethyl acetate/heptane solvent mixture was used here as an example.
To prepare the solutions, the respective tri-O-acylglycerol was first dissolved in a polar organic solvent and then a non-polar solvent was added.
To prepare the solutions, 770 mg of the respective tri-O-acylglycerol were dissolved in 14 g ethyl acetate (15.6 mL). Then, 57.4 g of n-heptane (84.4 mL) was added.
Subsequently, homogenization and filtration were performed. The total volume of the solvent mixture is 100 mL.
To a precisely weighed amount of dry microcrystals of the previously prepared paclitaxel, a defined amount of the solutions containing tri-O-acylglycerol and optionally antioxidant is carefully added.
To check whether crystal suspension can be prepared, to each 200 mg of paclitaxel in the form of microcrystals were carefully added 10 mL of one of the solutions 1a) to 1j) at room temperature. Six mixtures of 10 mL of solution for each solution were prepared. After combining, it was tested whether the microcrystals of paclitaxel dissolved directly in the solutions.
To evaluate the crystal size, particle size distribution (i.e., crystal size distribution), and shape of the crystals, a sample was taken with a Pasteur pipette in each case and a drop was placed on the slide of the SEM sample plate. SEM images were taken at 200× and 1000× magnification for evaluation.
To evaluate the crystal size, particle size distribution (i.e., crystal size distribution), and shape of the crystals, one sample was taken from each using a Pasteur pipette and one drop was placed on the foil of the SEM sample plate. An additional sample was taken from the sediment and one drop was placed on the slide of the SEM sample plate. SEM images were taken at 200× and 1000× magnification for evaluation. SEM images were taken at 200 and 1000× magnification for evaluation.
To prepare the solutions, 770 mg of the respective tri-O-acylglycerol were dissolved in 14 g ethyl acetate (15.6 mL). Then, 57.4 g of n-heptane (84.4 mL) was added. Subsequently, homogenization and filtration were performed. The total volume of the solvent mixture is 100 mL.
Three mixtures of 10 mL of solution for each solution were prepared. After combining, it was tested whether the microcrystals dissolved directly in these solutions.

As for `CCCOC(C)=O` [n-Propyl acetate], in data set [1] (Table 6, rounded values), the logKOW result is recorded as “+1.4”.

For `Cc1ccccc1C` [o-Xylene], the logKOW is 3.1 in data set [1] (Table 4) and 3.12 in data set [1] (Table 8).

Consider `CC(C)Cc1ccccc1` [2-Methyl-1-phenylpropane], for which, in data set [1] (Table 4), the logKOW is 3.4.

`CCCCC(C)C` [2-Methylhexane]: in data set [1] (Table 2, rounded values), the logKOW is given as 3.7.

For the molecule `C1CCCCCCCCC1` [Cyclodecane], the logKOW in data set [1] (Table 2, rounded values) was 5.5.

For `CN1CCCC1=O` [N-methylpyrrolidone], the logKOW in data set [1] (Table 6, rounded values) is −0.5.

`CC(C)c1ccccc1` [Cumol]: the logKOW in data set [1] (Table 4) is recorded as 3.4.

Take `CC(C)Cc1ccccc1` [iso-butylbenzene]: in data set [1] (Table 4), the logKOW is listed as 4.1.

Consider `CC(C)(C)C1CCCCC1` [tert-butylcyclohexane], for which the logKOW in data set [1] (Table 2, rounded values) is recorded as 4.0.

For the molecule `COc1ccccc1` [Anisol], in data set [1] (Table 4), the logKOW is given as 2.1.

In the case of `CCCCCCCCCC` [Decan], the logKOW in data set [1] (Table 2, rounded values) was 6.3.

`Cc1ccc(C)cc1` [p-Xylene]: the logKOW is reported as 3.2 in data set [1] (Table 4) and 3.15 in data set [1] (Table 8).

With `CCOCC` [Diethyl ether], the logKOW result in data set [1] (Table 6, rounded values) is listed as “+0.9”; in data set [1] (Table 7), 0.89.

With `C1COCCO1` [1,4-Dioxane], the logKOW in data set [1] (Table 6, rounded values) is recorded as −0.4; in data set [1] (Table 7), −0.42. Further, the “log KOW” value in data set [1] is on record as “about −0.4”.

Take `ClCCl` [Dichloromethane]: the logKOW result was “+1.3” in data set [1] (Table 6, rounded values) and 1.25 in data set [1] (Table 7).

For the molecule `CC1CCCC1` [Methylcyclopentane], in data set [1] (Table 2, rounded values), the logKOW is reported as 3.4.

Consider `C1CCOC1` [Tetrahydrofuran (THF), Tetrahydrofuran], for which the logKOW entry in data set [1] (Table 6, rounded values) is “+0.5”; in data set [1] (Table 7), 0.46.

As for `CCCC(C)C` [2-Methylpentane], the logKOW in data set [1] (Table 2, rounded values) is 3.6.

`CCOC(C)=O` [Ethyl acetate]: the logKOW result in data set [1] (Table 6, rounded values) is listed as “+0.7”; in data set [1] (Table 7) it was 0.73.

`CO` [Methanol]: the logKOW was −0.7 in data set [1] (Table 6, rounded values) and −0.74 in data set [1] (Table 7).

Take `CC(=O)O[C@H]1C(=O)[C@@]2(C)[C@H]([C@H](OC(=O)c3ccccc3)[C@]3(O)C[C@H](OC(=O)[C@H](O)[C@@H](NC(=O)c4ccccc4)c4ccccc4)C(C)=C1C3(C)C)[C@]1(OC(C)=O)CO[C@@H]1C[C@@H]2O` [paclitaxel, (2α,4α,5β,7β,10β,13α)-4,10-Bis(acetyloxy)-13-{[(2R,3S)-3-(benzoylamino)-2-hydroxy-3-phenylpropanoyl]oxy}-1,7-dihydroxy-9-oxo-5,20-epoxytax-11-en-2-yl-benzoat]: the Crystal suspension result is listed as “+++” in data set [2] (Acetone/Cyclohexane 10:90 (v/v polar/non-polar)); “−−−” in data set [2] (Acetone/Cyclohexane 50:50 (v/v polar/non-polar)); “−−−” in data set [2] (Acetone/Cyclohexane 60:40 (v/v polar/non-polar)); “+++” in data set [2] (Acetone/Heptane 10:90 (v/v polar/non-polar)); “−−−” in data set [2] (Acetone/Heptane 60:40 (v/v polar/non-polar)); “+++” in data set [2] (Acetone/Hexane 10:90 (v/v polar/non-polar)). For the same molecule, the Crystal suspension entry is given as “−−−” in data set [2] (Acetone/Hexane 50:50 (v/v polar/non-polar)); “−−−” in data set [2] (Acetone/Hexane 60:40 (v/v polar/non-polar)); “+++” in data set [2] (Ethanol/Cyclohexane 10:90 (v/v polar/non-polar)); “−−−” in data set [2] (Ethanol/Cyclohexane 60:40 (v/v polar/non-polar)); “+++” in data set [2] (Ethanol/Heptane 10:90 (v/v polar/non-polar)); “−−−” in data set [2] (Ethanol/Heptane 60:40 (v/v polar/non-polar)). Besides, the Crystal suspension entry is given as “+++” in data set [2] (Ethanol/Hexane 10:90 (v/v polar/non-polar)); “−−−” in data set [2] (Ethanol/Hexane 60:40 (v/v polar/non-polar)); “+++” in data set [2] (Ethyl acetate/Cyclohexane 10:90 (v/v polar/non-polar)); “+++” in data set [2] (Ethyl acetate/Cyclohexane 30:70 (v/v polar/non-polar)); “+++” in data set [2] (Ethyl acetate/Cyclohexane 40:60 (v/v polar/non-polar)); “+/−” in data set [2] (Ethyl acetate/Cyclohexane 60:40 (v/v polar/non-polar)). The Crystal suspension result in data set [2] (Ethyl acetate/Heptane 10:90 (v/v polar/non-polar)) is “+++”; in data set [2] (Ethyl acetate/Heptane 30:70 (v/v polar/non-polar)), “+++”; in data set [2] (Ethyl acetate/Heptane 40:60 (v/v polar/non-polar)) it was “+++”; in data set [2] (Ethyl acetate/Heptane 60:40 (v/v polar/non-polar)), “+/−”; in data set [2] (Ethyl acetate/Hexane 10:90 (v/v polar/non-polar)) it was “+++”; in data set [2] (Ethyl acetate/Hexane 30:70 (v/v polar/non-polar)) it was “+++”. The Crystal suspension entry in data set [2] (Ethyl acetate/Hexane 40:60 (v/v polar/non-polar)) is given as “+++”; in data set [2] (Ethyl acetate/Hexane 60:40 (v/v polar/non-polar)), “+/−”; in data set [2] (iso-propanol/Cyclohexane 10:90 (v/v polar/non-polar)) it was “+++”; in data set [2] (iso-propanol/Cyclohexane 50:50 (v/v polar/non-polar)), “−−−”; in data set [2] (iso-propanol/Cyclohexane 60:40 (v/v polar/non-polar)), “−−−”; in data set [2] (iso-propanol/Heptane 10:90 (v/v polar/non-polar)), “+++”. Besides, the Crystal suspension entry in data set [2] (iso-propanol/Heptane 50:50 (v/v polar/non-polar)) is “−−−”; in data set [2] (iso-propanol/Heptane 60:40 (v/v polar/non-polar)), “−−−”; in data set [2] (iso-propanol/Hexane 10:90 (v/v polar/non-polar)), “+++”; in data set [2] (iso-propanol/Hexane 50:50 (v/v polar/non-polar)) it was “−−−”; in data set [2] (iso-propanol/Hexane 60:40 (v/v polar/non-polar)) it was “−−−”.

Consider `CCC(C)c1ccccc1` (centres unmarked) [2-Phenylbutane], for which the logKOW in data set [1] (Table 4) was 3.4.

On to `CCOc1ccccc1` [Ethoxybenzene], for which the logKOW in data set [1] (Table 4) is recorded as 2.5.

Take `OCC(O)CO` [Glycerin]: the logKOW in data set [1] (Table 6, rounded values) is reported as −1.8.

For the molecule `CCC(C)C` [Isopentane], the logKOW in data set [1] (Table 2, rounded values) is given as 3.2.

`CCC(C)(C)C` [2,2-Dimethylbutane]: the logKOW in data set [1] (Table 2, rounded values) is reported as 3.8.

For `Cc1cccc(C)c1` [m-Xylene], the logKOW in data set [1] (Table 4) is reported as 3.2; in data set [1] (Table 8), 3.20.

For `O` [Water], in data set [1] (Table 5, rounded orientation values), the logKOW result is “approx. −1.4”.

Regarding `CC(C)CC(C)(C)C` [2,2,4-Trimethylpentane], the logKOW in data set [1] (Table 2, rounded values) is on record as 4.1.

For the molecule `CC1CCCCC1` [Methylcyclohexane], the logKOW in data set [1] (Table 2, rounded values) was 3.9.

As to `CCCC(C)=O` [Solution 2-Pentanone, 2-Pentanone], the logKOW entry in data set [1] (Table 6, rounded values) is listed as “+0.9”; in data set [1] (Table 7), 0.84.

Consider `FC(F)(F)C(F)(F)C(F)(F)C(F)(F)C(F)(F)C(F)(F)F` [Tetradecafluorohexane], for which the logKOW in data set [1] (Table 4) is on record as 5.8.

`CC(C)=O` [Acetone]: the logKOW was −0.2 in data set [1] (Table 6, rounded values) and −0.24 in data set [1] (Table 7).

For `CCC(C)=O` [Solution 2-Butanone, 2-Butanone], the logKOW in data set [1] (Table 7) is recorded as 0.29.

As to `CCCCCCCCCCCC(=O)OCC(COC(=O)CCCCCCCCCCC)OC(=O)CCCCCCCCCCC` [tridodecanoylglycerol], in data set [3], the “sedimentation of the microcrystals” value is given as “sedimentation of the crystals occurred”, the “state of paclitaxel microcrystals in the suspension after 100 h” value is “did not dissolve completely”, the “microcrystals intact in SEM images” value is reported as “did not remain intact” and the “microcrystals of paclitaxel dissolve directly in the solution” value is on record as “did not dissolve directly”.

For the molecule `C1CCCC1` [Cyclopentane], the logKOW in data set [1] (Table 2, rounded values) is listed as 3.0; in data set [1] (Table 8), 3.00.

As to `ClC(Cl)(Cl)Cl` [Carbon tetrachloride], the logKOW entry in data set [1] (Table 3, rounded orientation values) is reported as “approx. 2.8”; in data set [1] (Table 4), 2.8.

For `CCc1ccccc1` [Ethylbenzene], in data set [1] (Table 4), the logKOW is reported as 3.2.

With `CCCCCCC` [Heptane], the logKOW in data set [1] (Table 2, rounded values) was 4.5; in data set [1] (Table 8) it was 4.50.

For the molecule `C1CCCCCCCC1` [Cyclononan], the logKOW in data set [1] (Table 2, rounded values) is listed as 5.1.

For the molecule `CCCOCCC` [Dipropyl ether], the logKOW entry in data set [1] (Table 6, rounded values) was “+2.0”.

On to `CCCCCCC(=O)OCC(COC(=O)CCCCCC)OC(=O)CCCCCC` [triheptanoylglycerol], for which, in data set [3], the “state of paclitaxel microcrystals in the suspension after 100 h” value is “partially dissolved”, the “microcrystals intact in SEM images” value is reported as “did not remain intact” and the “microcrystals of paclitaxel dissolve directly in the solution” value is “did not dissolve directly”. The “paclitaxel microcrystals on temperature increase” value in data set [3] (temperature increased (50° C.)) is “dissolved”.

Consider `COC(C)=O` [Methyl acetate], for which the logKOW entry in data set [1] (Table 6, rounded values) is “+0.2”.

`CCCCc1ccccc1` [1-Phenylbutane]: in data set [1] (Table 4), the logKOW was 3.4.

With `CCCCCCCCC` [Nonan], in data set [1] (Table 2, rounded values), the logKOW is 5.7.

`Clc1ccccc1` [Chlorobenzene]: in data set [1] (Table 4), the logKOW is on record as 2.9. In addition, in data set [1], the “log KOW” value is on record as “about 2.9”.

Turning to `Clc1ccccc1Cl` [o-Dichlorobenzene], the logKOW in data set [1] (Table 4) is on record as 3.4.

`CCCC(C)(C)C` [2,2-Dimethylpentane]: the logKOW in data set [1] (Table 2, rounded values) is 3.8.

In the case of `CCC(=O)O` [Propionic acid], the logKOW in data set [1] (Table 7) was 0.32.

For `CCCCCCCC` [Octane], the logKOW in data set [1] (Table 2, rounded values) is given as 5.2.

With `CCC(C)C(C)C` (centres unmarked) [2,3-Dimethylpentane], in data set [1] (Table 2, rounded values), the logKOW is 3.8.

As to `C1CCCCCC1` [Cycloheptane], the logKOW in data set [1] (Table 2, rounded values) is listed as 4.

Take `CC#N` [Acetonitrile]: the logKOW in data set [1] (Table 6, rounded values) is reported as −0.3; in data set [1] (Table 7), −0.34.
